Test results published in patent US9315490B2, “2,5-substituted pyrimidines” (Grünenthal GmbH, priority 2014, dated 2016).

biological target: T1, human PDE4B1 (Homo sapiens, UniProt Q07343); assay: cAMP HTRF assay to determine the activity of hPDE4B1; assay type: biochemical; settings: inhibition of PDE4B at a test concentration of 1 μM
T1 construct: host or cells: Sf9 cells
Experimental: Biological Testing cAMP HTRF® Assay to Determine the Activity of hPDE4B1
The inhibiting effect of the compounds on the enzyme activity of human PDE4B1 was measured by the quantification of 5′-adenosine monophosphate (5′-AMP), which is formed from 3′,5′-cyclic adenosine monophosphate (cAMP). Human recombinant enzyme, expressed in Sf9 cells, and the HTRF (homogeneous time-resolved fluorescence) detection method were used in the assay.
The test compound or water (control) was mixed with the human recombinant PDE4B1 enzyme (4.8 U) in a buffer consisting of 44.4 mM tris-HCl, 5.28 mM MgCl2, 2.64 mM DTT and 0.044% Tween 20 (pH 7.8). After adding the cAMP enzyme substrate (final concentration 40 nM), the mixture was incubated for 30 minutes at room temperature. Then a fluorescence acceptor (Dye2 marked with cAMP), a fluorescence donor (anti-cAMP antibody marked with a europium cryptate) and the non-specific phosphodiesterase inhibitor IBMX (3-isobutyl-1-methylxanthine; final concentration 1 mM) were added. After 60 minutes the fluorescence transfer, which correlates with the amount of remaining cAMP, was measured with a microplate reader (Rubystar, BMG) at λex=337 nm, λem=620 nm and λem=665 nm. The enzyme activity was calculated from the quotient formed from the measured signal at 665 nm and that at 620 nm. The result was expressed as the percentage inhibition of enzyme activity of the control (without PDE4 inhibitor). The enzyme was omitted for measurement of the basal control. IC50 values (IC50=concentration causing a half-maximal inhibition of control specific activity) were derived from dose response measurements with eight different concentrations (n=2; N=1-3).
Literature: N. Saldou et al., Comparison of recombinant human PDE4 isoforms: interaction with substrate and inhibitors, Cell. Signal. Vol. 10, No. 6, 427-440, 1998

T1 sequence (Q07343 whole entry): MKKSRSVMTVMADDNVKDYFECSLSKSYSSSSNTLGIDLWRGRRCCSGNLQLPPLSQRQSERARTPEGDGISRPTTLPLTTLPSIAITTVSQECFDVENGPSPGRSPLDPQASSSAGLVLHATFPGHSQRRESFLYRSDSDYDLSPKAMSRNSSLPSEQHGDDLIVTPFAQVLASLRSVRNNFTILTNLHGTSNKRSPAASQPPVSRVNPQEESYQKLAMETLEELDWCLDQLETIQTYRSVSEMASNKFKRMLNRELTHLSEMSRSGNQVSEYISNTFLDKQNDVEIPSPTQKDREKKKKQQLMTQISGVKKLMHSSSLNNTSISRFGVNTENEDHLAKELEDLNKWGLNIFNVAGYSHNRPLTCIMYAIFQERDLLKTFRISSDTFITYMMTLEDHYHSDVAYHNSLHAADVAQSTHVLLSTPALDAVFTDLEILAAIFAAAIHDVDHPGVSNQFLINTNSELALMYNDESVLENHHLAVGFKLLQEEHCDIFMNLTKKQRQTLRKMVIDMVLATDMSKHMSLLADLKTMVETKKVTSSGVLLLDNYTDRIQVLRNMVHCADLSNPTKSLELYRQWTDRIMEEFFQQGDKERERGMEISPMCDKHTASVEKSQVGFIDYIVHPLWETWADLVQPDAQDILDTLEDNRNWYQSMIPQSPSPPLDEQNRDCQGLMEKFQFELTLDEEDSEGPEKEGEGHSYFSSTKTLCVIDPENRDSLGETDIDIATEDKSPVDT

| SMILES | inhibition at 1 µM [%] | Inhibition in % [%] |
| --- | --- | --- |
| Cc1ccnc(-c2cnc(-n3cc([S+](C)[O-])c4ccc(C(=O)N5CCOCC5)cc43)nc2)c1 (racemic) [Example 142, (1-(5-(4-methylpyridin-2-yl)pyrimidin-2-yl)-3-(methylsulfinyl)-1H-indol-6-yl)(morpholino)methanone] | 110 | – |
| Cc1cccc(-c2cnc(-n3cc([S+](C)[O-])c4ccc(C(=O)N5CCOCC5)cc43)nc2)c1 (single isomer, unassigned) [Example 154, (3-(Methylsulfinyl)-1-(5-(m-tolyl)pyrimidin-2-yl)-1H-indol-6-yl)(morpholino)methanone] | 98 | – |
| COc1ccc(F)c(-c2cnc(-n3cc([S+](C)[O-])c4ccc(C(=O)N5CCOCC5)cc43)nc2)c1 (single isomer, unassigned) [Example 160, (1-(5-(2-Fluoro-5-methoxyphenyl)pyrimidin-2-yl)-3-(methylsulfinyl)-1H-indol-6-yl)(morpholino)methanone] | 107 | – |
| C[S+]([O-])c1cn(-c2ncc(-c3ccccc3)cn2)c2cc(C(=O)N3CCOCC3)ccc12 (single isomer, unassigned) [Example 163, (3-(Methylsulfinyl)-1-(5-phenylpyrimidin-2-yl)-1H-indol-6-yl)(morpholino)methanone] | 104 | – |
| C[S+]([O-])c1cn(-c2ncc(-c3ccccc3F)cn2)c2cc(C(=O)N3CCOCC3)ccc12 (single isomer, unassigned) [Example 165, (1-(5-(2-Fluorophenyl)pyrimidin-2-yl)-3-(methylsulfinyl)-1H-indol-6-yl)(morpholino)methanone] | 105 | – |
| COc1ccc(F)c(-c2cnc(-n3cc([S+](C)[O-])c4ccc(C(=O)N5CCNC(=O)C5)cc43)nc2)c1 (single isomer, unassigned) [Example 213, 4-(1-(5-(2-Fluoro-5-methoxyphenyl)pyrimidin-2-yl)-3-(methylsulfinyl)-1H-indole-6-carbonyl)piperazin-2-one] | 106 | – |
| Cc1cccc(-c2cnc(-n3cc([S+](C)[O-])c4ccc(C(=O)N5CCNC(=O)C5)cc43)nc2)c1 (single isomer, unassigned) [Example 215, 4-(3-(Methylsulfinyl)-1-(5-(m-tolyl)pyrimidin-2-yl)-1H-indole-6-carbonyl)piperazin-2-one] | 110 | – |
| COc1cccc(-c2cnc(-n3cc([S+](C)[O-])c4ccc(C(=O)N5CCNC(=O)C5)cc43)nc2)c1 (single isomer, unassigned) [Example 217, 4-(1-(5-(3-Methoxyphenyl)pyrimidin-2-yl)-3-(methylsulfinyl)-1H-indole-6-carbonyl)piperazin-2-one] | 109 | – |
| CC(O)c1cn(-c2ncc(-c3ccccc3)cn2)c2cc(C(=O)N3CCOCC3)ccc12 (single isomer, unassigned) [Example 254, (3-(1-Hydroxyethyl)-1-(5-phenylpyrimidin-2-yl)-1H-indol-6-yl)(morpholino)methanone] | 95 | – |
| CC(O)c1cn(-c2ncc(-c3ccccc3)cn2)c2cc(C(=O)N3CCOCC3)ccc12 (single isomer, unassigned) [Example 255, (3-(1-Hydroxyethyl)-1-(5-phenylpyrimidin-2-yl)-1H-indol-6-yl)(morpholino)methanone] | – | 95 |
| CC1CC(C)CN(C(=O)c2ccc3c([S+](C)[O-])cn(-c4ncc(-c5ccccc5F)cn4)c3c2)C1 (single isomer, unassigned) [Example 372, (3,5-Dimethylpiperidin-1-yl)(1-(5-(2-fluorophenyl)pyrimidin-2-yl)-3-(methylsulfinyl)-1H-indol-6-yl)methanone] | 40 | – |

same assay, conditions: inhibition of PDE4B at a test concentration of 1 μM, 1 µM

| SMILES | Inhibition in % [%] |
| --- | --- |
| Cc1cccc(-c2cnc(-n3cc([S+](C)[O-])c4ccc(C(=O)N5CCOCC5)cc43)nc2)c1 (single isomer, unassigned) [Example 155, (3-(Methylsulfinyl)-1-(5-(m-tolyl)pyrimidin-2-yl)-1H-indol-6-yl)(morpholino)methanone] | 97 |
| COc1cccc(-c2cnc(-n3cc([S+](C)[O-])c4ccc(C(=O)N5CCOCC5)cc43)nc2)c1 (single isomer, unassigned) [Example 157, (1-(5-(3-Methoxyphenyl)pyrimidin-2-yl)-3-(methylsulfinyl)-1H-indol-6-yl)(morpholino)methanone] | 81 |
| COc1cccc(-c2cnc(-n3cc([S+](C)[O-])c4ccc(C(=O)N5CCOCC5)cc43)nc2)c1 (single isomer, unassigned) [Example 158, (1-(5-(3-Methoxyphenyl)pyrimidin-2-yl)-3-(methylsulfinyl)-1H-indol-6-yl)(morpholino)methanone] | 104 |
| COc1ccc(F)c(-c2cnc(-n3cc([S+](C)[O-])c4ccc(C(=O)N5CCOCC5)cc43)nc2)c1 (single isomer, unassigned) [Example 161, (1-(5-(2-Fluoro-5-methoxyphenyl)pyrimidin-2-yl)-3-(methylsulfinyl)-1H-indol-6-yl)(morpholino)methanone] | 109 |
| C[S+]([O-])c1cn(-c2ncc(-c3ccccc3)cn2)c2cc(C(=O)N3CCOCC3)ccc12 (single isomer, unassigned) [Example 164, (3-(Methylsulfinyl)-1-(5-phenylpyrimidin-2-yl)-1H-indol-6-yl)(morpholino)methanone] | 92 |
| C[S+]([O-])c1cn(-c2ncc(-c3ccccc3F)cn2)c2cc(C(=O)N3CCOCC3)ccc12 (single isomer, unassigned) [Example 166, (1-(5-(2-Fluorophenyl)pyrimidin-2-yl)-3-(methylsulfinyl)-1H-indol-6-yl)(morpholino)methanone] | 93 |
| COc1ccc(F)c(-c2cnc(-n3cc([S+](C)[O-])c4ccc(C(=O)N5CCNC(=O)C5)cc43)nc2)c1 (single isomer, unassigned) [Example 214, 4-(1-(5-(2-Fluoro-5-methoxyphenyl)pyrimidin-2-yl)-3-(methylsulfinyl)-1H-indole-6-carbonyl)piperazin-2-one] | 92 |
| Cc1cccc(-c2cnc(-n3cc([S+](C)[O-])c4ccc(C(=O)N5CCNC(=O)C5)cc43)nc2)c1 (single isomer, unassigned) [Example 216, 4-(3-(Methylsulfinyl)-1-(5-(m-tolyl)pyrimidin-2-yl)-1H-indole-6-carbonyl)piperazin-2-one] | 94 |
| COc1cccc(-c2cnc(-n3cc([S+](C)[O-])c4ccc(C(=O)N5CCNC(=O)C5)cc43)nc2)c1 (single isomer, unassigned) [Example 218, 4-(1-(5-(3-Methoxyphenyl)pyrimidin-2-yl)-3-(methylsulfinyl)-1H-indole-6-carbonyl)piperazin-2-one] | 98 |
| CC(O)c1cn(-c2ncc(-c3ccccc3F)cn2)c2cc(C(=O)N3CCOCC3)ccc12 (single isomer, unassigned) [Example 252, (1-(5-(2-Fluorophenyl)pyrimidin-2-yl)-3-(1-hydroxyethyl)-1H-indol-6-yl)(morpholino)methanone] | 97 |
| CC(O)c1cn(-c2ncc(-c3ccccc3F)cn2)c2cc(C(=O)N3CCOCC3)ccc12 (single isomer, unassigned) [Example 253, (1-(5-(2-Fluorophenyl)pyrimidin-2-yl)-3-(1-hydroxyethyl)-1H-indol-6-yl)(morpholino)methanone] | 120 |
